In patent US8354403B2, “Pyrrolidine derived beta 3 adrenergic receptor agonists” (Merck Sharp & Dohme Corp., priority 2009, dated 2013):

The molecules below were run against T1, human β3 adrenergic receptor (Homo sapiens, UniProt P13945) (assay: Beta-3 agonist in vitro functional assay: cAMP production (LANCE TR-FRET) in CHO cells stably transfected with the cloned β3 receptor). Conditions: Table 4; cAMP, CHO cells; read-out: Human β3 agonist functional activity.
T1 construct: expressed in transfected cells; host or cells: Chinese hamster ovary (CHO) cells, stably transfected
T1 sequence (P13945 whole entry): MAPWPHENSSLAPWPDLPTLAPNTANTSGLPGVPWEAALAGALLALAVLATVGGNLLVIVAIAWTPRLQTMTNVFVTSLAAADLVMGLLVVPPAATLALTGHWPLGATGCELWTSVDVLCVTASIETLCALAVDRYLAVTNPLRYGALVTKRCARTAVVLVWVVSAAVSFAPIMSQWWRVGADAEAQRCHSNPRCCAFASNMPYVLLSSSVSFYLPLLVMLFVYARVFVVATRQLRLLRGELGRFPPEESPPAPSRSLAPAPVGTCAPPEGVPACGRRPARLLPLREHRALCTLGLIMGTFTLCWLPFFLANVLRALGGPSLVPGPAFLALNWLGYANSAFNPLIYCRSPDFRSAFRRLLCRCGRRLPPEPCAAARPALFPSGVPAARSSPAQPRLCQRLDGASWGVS
Type: cell-based
Experimental: Chinese hamster ovary (CHO) cells, stably transfected with the cloned β-adrenergic receptor (β1, β2 or β3) are harvested after 3 days of subculturing. Harvesting of cells is done with Enzyme-free Dissociation Media (Specialty Media). Cells are then counted and resuspended in assay buffer (Hank's Balanced salt solution supplemented with 5 mM HEPES, […]) containing a phosphodiesterase inhibitor (IBMX, 0.6 mM). The reaction is initiated by mixing 6,000 cells in 6 μL with 6 μL Alexa Fluor labeled cAMP antibody (LANCE™ kit) which is then added to an assay well containing 12 μL of compound (diluted in assay buffer to 2× final concentration). The reaction proceeds for 30 minutes at RT and is terminated by the addition of 24 ul detection buffer (LANCE™ kit). The assay plate is then incubated for 1 h at RT and time-resolved fluorescence measured on a Perkin Elmer Envision reader or equivalent. The unknown cAMP level is determined by comparing fluorescence levels to a cAMP standard curve.
The non-selective, full agonist β-adrenergic ligand isoproterenol is used at all three receptors to determine maximal stimulation. […] Data are analyzed using Microsoft Excel and Graphpad Prism or an internally developed data analysis software package.

Compound	EC50 [nM]
O=C(c1ccc(C[C@@H]2CC[C@H]([C@H](O)c3ccccc3)N2)cc1)N1Cc2c[nH]nc2C1 [Example 27]	10 to 99.9
O=C(c1ccc(C[C@@H]2CC[C@H]([C@H](O)c3ccccc3)N2)cc1)N1CC2CC(n3ccnn3)CC2C1 (some centres unmarked) [Example 21]	10 to 99.9
CCS(=O)(=O)n1cc2c(n1)CN(C(=O)c1ccc(C[C@@H]3CC[C@H]([C@H](O)c4ccccc4)N3)cc1)C2 [Example 29]	100 to 999
Cc1noc(C2CCN(C(=O)c3ccc(C[C@@H]4CC[C@H]([C@H](O)c5ccccc5)N4)cc3)C2)n1 (some centres unmarked) [Example 11]	100 to 999

Same assay, conditions: Table 5; cAMP, CHO cells; read-out: Human β3 agonist functional activity

Compound	EC50 [nM]
O=C(c1ccc(C[C@@H]2CC[C@H]([C@H](O)c3ccccc3)N2)cc1)N1CCC(Cn2cccnc2=O)CC1 [Example 150]	100 to 999
COc1cc(OC)nc(C2CCN(C(=O)c3ccc(C[C@@H]4CC[C@H]([C@H](O)c5ccccc5)N4)cc3)CC2)n1 [Example 115]	100 to 999
O=C(c1ccc(C[C@@H]2CC[C@H]([C@H](O)c3ccccc3)N2)cc1)N1CCC(C(O)c2ccccn2)CC1 (some centres unmarked) [Example 168]	10 to 99.9
O=C(c1ccc(C[C@@H]2CC[C@H]([C@H](O)c3ccccc3)N2)cc1)N1CCC(S(=O)(=O)c2ccc(F)cc2)CC1 [Example 128]	10 to 99.9
CC(C1CCN(C(=O)c2ccc(C[C@@H]3CC[C@H]([C@H](O)c4ccccc4)N3)cc2)CC1)n1cnccc1=O (some centres unmarked) [Example 166]	10 to 99.9
O=C(c1ccc(C[C@@H]2CC[C@H]([C@H](O)c3cccnc3)N2)cc1)N1CCC(N2C(=O)OCc3ccccc32)CC1 [Example 71]	1 to 9.9
O=C(c1ccc(C[C@@H]2CC[C@H]([C@H](O)c3ccccc3)N2)cc1)N1CCC(c2nnc(-c3cnccn3)[nH]2)CC1 [Example 81]	100 to 999
O=C(c1ccc(C[C@@H]2CC[C@H]([C@H](O)c3ccccc3)N2)cc1)N1CCC(n2cnnc2)CC1 [Example 91]	100 to 999
Cc1cnnn1C1CCN(C(=O)c2ccc(C[C@@H]3CC[C@H]([C@H](O)c4ccccc4)N3)cc2)CC1 [Example 96]	100 to 999
O=C(c1ccc(C[C@@H]2CC[C@H]([C@H](O)c3cccnc3)N2)cc1)N1CCC(c2cccc(F)n2)CC1 [Example 113]	10 to 99.9

Same assay, conditions: Table 7; cAMP, CHO cells; ranges as given for Tables 6 and 7; read-out: Human β3 agonist functional activity

Compound	EC50 [nM]
CCOC(=O)C1C2CN(C(=O)c3ccc(CC4CCC(C(O)c5ccccc5)N4)cc3)CC21 (centres unmarked) [Example 230]	10 to 99.9
O=C(c1ccc(CC2CCC(C(O)c3ccccc3)N2)cc1)N1CC2C(C1)C2Cn1ccnn1 (centres unmarked) [Example 233]	100 to 999

Same assay, conditions: Table 8; Beta-3 agonist in vitro functional assay; read-out: Human β3 agonist functional activity

Compound	EC50 [nM]
O=C(c1ccc(C[C@@H]2CC[C@H]([C@H](O)c3cccnc3)N2)cc1)N1CCC2(CC1)SCc1ccccc12 [Example 301]	100 to 999
O=C1Nc2ncccc2C2(CCN(C(=O)c3ccc(C[C@@H]4CC[C@H]([C@H](O)c5ccccc5)N4)cc3)CC2)O1 [Example 330]	10 to 99.9
O=C(c1ccc(C[C@@H]2CC[C@H]([C@H](O)c3ccccc3)N2)cc1)N1CCC2(CC1)C(=O)NCC2c1ccccc1 (some centres unmarked) [Example 261]	< 1
O=C(c1ccc(C[C@@H]2CC[C@H]([C@H](O)c3ccccc3)N2)cc1)N1CCC2(CC1)c1ccccc1CS2(=O)=O [Example 302]	10 to 99.9
O=C1CC2(CCN(C(=O)c3ccc(C[C@@H]4CC[C@H]([C@H](O)c5ccccc5)N4)cc3)CC2)Oc2ccccc21 [Example 323]	10 to 99.9
CCN1CCC2(CCN(C(=O)c3ccc(C[C@@H]4CC[C@H]([C@H](O)c5ccccc5)N4)cc3)CC2)C1=O [Example 252]	100 to 999

Same assay, conditions: Table 9; Beta-3 agonist in vitro functional assay; read-out: Human β3 agonist functional activity

Compound	EC50 [nM]
O=C(c1ccc(C[C@@H]2CC[C@H]([C@H](O)c3ccccc3)N2)cc1)N1CCN(c2ccc3c(c2)OCO3)CC1 [Example 353]	100 to 999
Cn1ncnc1CN1CCN(C(=O)c2ccc(C[C@@H]3CC[C@H]([C@H](O)c4ccccc4)N3)cc2)CC1 [Example 397]	10 to 99.9
CC(C)(c1ccccc1F)N1CCN(C(=O)c2ccc(C[C@@H]3CC[C@H]([C@H](O)c4ccccc4)N3)cc2)CC1 [Example 412]	1 to 9.9
O=C(c1ccc(C[C@@H]2CC[C@H]([C@H](O)c3ccccc3)N2)cc1)N1CCN(Cc2nccs2)CC1 [Example 394]	10 to 99.9
O=C(c1ccc(C[C@@H]2CC[C@H]([C@H](O)c3ccccc3)N2)cc1)N1CCN(c2ccncc2)CC1 [Example 356]	100 to 999
O=C(c1ccc(C[C@@H]2CC[C@H]([C@H](O)c3cccnc3)N2)cc1)N1CCN(c2nccs2)CC1 [Example 379]	100 to 999
O=C(c1ccc(C[C@@H]2CC[C@H]([C@H](O)c3ccccc3)N2)cc1)N1CCN(Cc2nc3ccccc3o2)CC1 [Example 403]	1 to 9.9
CC(c1nn[nH]n1)N1CCN(C(=O)c2ccc(C[C@@H]3CC[C@H]([C@H](O)c4ccccc4)N3)cc2)CC1 (some centres unmarked) [Example 423]	10 to 99.9
Cn1nnnc1CN1CCN(C(=O)c2ccc(C[C@@H]3CC[C@H]([C@H](O)c4ccccc4)N3)cc2)CC1 [Example 399]	10 to 99.9
O=C(c1ccc(C[C@@H]2CC[C@H]([C@H](O)c3ccccc3)N2)cc1)N1CCN(c2ncccc2Cl)CC1 [Example 358]	10 to 99.9
Cn1nnc(CN2CCN(C(=O)c3ccc(C[C@@H]4CC[C@H]([C@H](O)c5ccccc5)N4)cc3)CC2)n1 [Example 401]	10 to 99.9
COc1cccnc1N1CCN(C(=O)c2ccc(C[C@@H]3CC[C@H]([C@H](O)c4ccccc4)N3)cc2)CC1 [Example 361]	10 to 99.9

Same assay, conditions: Table 10; Beta-3 agonist in vitro functional assay; read-out: Human β3 agonist functional activity

Compound	EC50 [nM]
CC(C(=O)N1CCn2ccnc2C1)N1CCN(C(=O)c2ccc(C[C@@H]3CC[C@H]([C@H](O)c4ccccc4)N3)cc2)CC1 (some centres unmarked) [Example 502]	10 to 99.9
CCNC(=O)C(C)N1CCN(C(=O)c2ccc(C[C@@H]3CC[C@H]([C@H](O)c4ccccc4)N3)cc2)CC1 (some centres unmarked) [Example 436]	100 to 999
CC(C(=O)NCCC1CC1)N1CCN(C(=O)c2ccc(C[C@@H]3CC[C@H]([C@H](O)c4ccccc4)N3)cc2)CC1 (some centres unmarked) [Example 448]	10 to 99.9
CC(C(=O)NCC1CCCO1)N1CCN(C(=O)c2ccc(C[C@@H]3CC[C@H]([C@H](O)c4ccccc4)N3)cc2)CC1 (some centres unmarked) [Example 455]	10 to 99.9
CC(C(=O)N1CCc2oncc2C1)N1CCN(C(=O)c2ccc(C[C@@H]3CC[C@H]([C@H](O)c4ccccc4)N3)cc2)CC1 (some centres unmarked) [Example 503]	10 to 99.9
CC(C(=O)N1CCSC1)N1CCN(C(=O)c2ccc(C[C@@H]3CC[C@H]([C@H](O)c4ccccc4)N3)cc2)CC1 (some centres unmarked) [Example 481]	100 to 999
CC(C(=O)NC1CCOC1)N1CCN(C(=O)c2ccc(C[C@@H]3CC[C@H]([C@H](O)c4ccccc4)N3)cc2)CC1 (some centres unmarked) [Example 457]	10 to 99.9
CC(C(=O)N1CCC1)N1CCN(C(=O)c2ccc(C[C@@H]3CC[C@H]([C@H](O)c4ccccc4)N3)cc2)CC1 (some centres unmarked) [Example 471]	1 to 9.9
CC(C(=O)N1CCC(O)CC1)N1CCN(C(=O)c2ccc(C[C@@H]3CC[C@H]([C@H](O)c4ccccc4)N3)cc2)CC1 (some centres unmarked) [Example 489]	10 to 99.9
CC(C(=O)NCC1CC1)N1CCN(C(=O)c2ccc(C[C@@H]3CC[C@H]([C@H](O)c4ccccc4)N3)cc2)CC1 (some centres unmarked) [Example 447]	10 to 99.9
CC(C(=O)N1CC[C@H](F)C1)N1CCN(C(=O)c2ccc(C[C@@H]3CC[C@H]([C@H](O)c4ccccc4)N3)cc2)CC1 (some centres unmarked) [Example 475]	1 to 9.9
CC(C(=O)NC1CCN(C)C1=O)N1CCN(C(=O)c2ccc(C[C@@H]3CC[C@H]([C@H](O)c4ccccc4)N3)cc2)CC1 (some centres unmarked) [Example 459]	< 1

Same assay, conditions: Table 11; cAMP, CHO cells; read-out: Human β3 agonist functional activity

Compound	EC50 [nM]
C[C@@H](c1ccccn1)N1C2CCC1CN(C(=O)c1ccc(C[C@@H]3CC[C@H]([C@H](O)c4ccccc4)N3)cc1)C2 [Example 540]	100 to 999
O=C(c1ccc(C[C@@H]2CC[C@H]([C@H](O)c3ccccc3)N2)cc1)N1CCCN(Cc2ccccn2)CC1 [Example 551]	10 to 99.9

Same assay, conditions: Table 12; human β3 functional activity given as ranges; read-out: Human β3 agonist functional activity

Compound	EC50 [nM]
CC(c1cccnn1)N1CCN(C(=O)c2ccc(CC3CCC(C(O)c4ccccc4)N3)cc2)CC1 (single isomer, unassigned) [Example 591]	10 to 99.9
CC1CC2(CCN(C(=O)c3ccc(CC4CCC(C(O)c5ccccc5)N4)cc3)CC2)C(=O)O1 (single isomer, unassigned) [Example 561]	1 to 9.9

Same assay, conditions: given as a range; cAMP, CHO cells; read-out: human β3 functional activity

Compound	EC50 [nM]
O=C(c1ccc(C[C@@H]2CC[C@H]([C@H](O)c3cccnc3)N2)cc1)N1CCC(n2cccn2)CC1 [Example 65, (R)-[(2R,5S)-5-(4-{[4-(1H-pyrazol-1-yl)-piperidin-1-yl]carbonyl}benzyl)pyrrolidine-2-yl](pyridin-3-yl)methanol]	100 to 999
O=C(c1ccc(C[C@@H]2CC[C@H]([C@H](O)c3ccccc3)N2)cc1)N1CCC(c2cscn2)CC1 [Example 66, (R)-phenyl[(2R,5S)-5-(4-{[4-(1,3-thiazol-4-yl)-piperidin-1-yl]carbonyl}benzyl)pyrrolidine-2-yl]methanol]	10 to 99.9
O=C(c1ccc(C[C@@H]2CC[C@H]([C@H](O)c3ccccc3)N2)cc1)N1CC2CC(n3cccn3)CC2C1 (stereo partly drawn) [Example 1, (R)-phenyl[(2R,5S)-5-(4-{[5-(1H-pyrazol-1-yl)hexahydrocyclopenta[c]pyrrol-2(1H)-yl]carbonyl}benzyl)pyrrolidin-2-yl]methanol]	10 to 99.9
